According to US12319664B2, “Herbicidally active 3-phenylisoxazoline-5-carboxamides of cyclopentenylcarboxylic acid derivatives” (Bayer Aktiengesellschaft, priority 2018, dated 2025):

Tests used:
ALOMY = assay: Post-emergence herbicidal action against ALOMY; format: in vivo, Alopecurus myosuroides; conditions: application rate 80 g/ha, rated visually after about 3 weeks
Protocol: (§1) [table] 2. Post-emergence herbicidal action against harmful plants and crop plant compatibility Seeds of monocotyledonous and dicotyledonous weeds and crop plants are placed in sandy loam in plastic or wood-fibre pots, covered with soil and cultivated in a greenhouse under controlled growth conditions. 2 to 3 weeks after sowing, the test plants are treated at the one-leaf stage. The compounds of the invention, formulated in the form of wettable powders (WP) or as emulsion concentrates (EC), are then sprayed onto the green parts of the plants as aqueous suspension or emulsion with addition of 0.5% additive at a water application rate of 600 l/ha (converted). After the test plants have been kept in the greenhouse under optimum growth conditions for about 3 weeks, the activity of the preparations is rated visually in comparison to untreated controls. For example, 100% activity=the plants have died, 0% activity=like control plants.

STEME = assay: Post-emergence herbicidal action against STEME; format: in vivo, Stellaria media; conditions: application rate 80 g/ha, rated visually about 3 weeks after treatment
Protocol: as §1

VERPE = assay: Post-emergence herbicidal action against VERPE; format: in vivo, Veronica persica; conditions: application rate 80 g/ha
Protocol: as §1

HORMU = assay: Post-emergence herbicidal action against HORMU; format: in vivo, Hordeum murinum; conditions: application rate 80 g/ha
Protocol: as §1

LOLRI = assay: Post-emergence herbicidal action against LOLRI; format: in vivo, Lolium rigidum; conditions: application rate 80 g/ha, rated visually after about 3 weeks
Protocol: as §1

AVEFA = assay: Post-emergence herbicidal action against AVEFA; format: in vivo, Avena fatua; conditions: application rate 80 g/ha, rated visually after about 3 weeks
Protocol: as §1

AMARE = assay: Post-emergence herbicidal action against AMARE; format: in vivo, Amaranthus retroflexus; conditions: application rate 80 g/ha, rated visually about 3 weeks after treatment
Protocol: as §1

ECHCG = assay: Post-emergence herbicidal action against ECHCG; format: in vivo, Echinochloa crus-galli; conditions: application rate 80 g/ha, rated visually after about 3 weeks
Protocol: as §1

SETVI = assay: Post-emergence herbicidal action against SETVI; format: in vivo, Setaria viridis; conditions: application rate 80 g/ha, rated visually after about 3 weeks
Protocol: as §1

POLCO = assay: Post-emergence herbicidal action against POLCO; format: in vivo, Polygonum convolvulus; conditions: application rate 80 g/ha, rated visually about 3 weeks after treatment
Protocol: as §1

ABUTH = assay: Post-emergence herbicidal action against ABUTH; format: in vivo, Abutilon theophrasti; conditions: application rate 80 g/ha, rated visually about 3 weeks after treatment
Protocol: as §1

Structure (SMILES) | Herbicidal action against [%] ALOMY (ALOMY) | Herbicidal action against [%] STEME (STEME) | Herbicidal action against [%] VERPE (VERPE) | Herbicidal action against [%] HORMU (HORMU) | Herbicidal action against [%] LOLRI (LOLRI) | Herbicidal action against [%] AVEFA (AVEFA) | Herbicidal action against [%] AMARE (AMARE) | Herbicidal action against [%] ECHCG (ECHCG) | Herbicidal action against [%] SETVI (SETVI) | Herbicidal action against [%] POLCO (POLCO) | Herbicidal action against [%] ABUTH (ABUTH)
C=CC1(C(=O)NC2C=CC(C(=O)NC(C)(C)C(=O)OC)C2)CC(c2cc(F)cc(F)c2)=NO1 (stereo not drawn) [II-22] | 80% | 80% | 80% | 90% | 90% | 90% |  |  |  |  | 
Cc1cc(C)cc(C2=NOC(C(=O)NC3C=CC(C(=O)OCCCl)C3)(C(F)(F)F)C2)c1 (mixture of isomers) [Example I-056] | 100% | 90% | 80% | 80% | 90% | 90% | 80% | 80% | 80% | 80% | 
C=CC1(C(=O)NC2C=CC(C(=O)NC(C#N)C(C)C)C2)CC(c2cc(F)cc(F)c2)=NO1 (mixture of isomers) [II-17] | 80% |  |  |  |  |  |  |  |  |  | 
O=C(OCCCl)[C@@H]1C=C[C@H](NC(=O)C2(C(F)(F)F)CC(c3ccccc3)=NO2)C1 (stereo partly drawn) [Example I-025] | 90% | 80% |  | 80% | 90% | 90% | 90% | 80% | 90% | 100% | 
C=CC1(C(=O)NC2C=CC(C(=O)N3CCCCO3)C2)CC(c2cc(F)cc(F)c2)=NO1 (mixture of isomers) [II-30] | 100% |  | 80% |  | 90% | 100% | 80% | 90% | 80% | 90% | 80%
CC(C)(C)OC(=O)C1C=CC(NC(=O)C2(C(F)(F)F)CC(c3cc(F)cc(F)c3)=NO2)C1 (mixture of isomers) [Example I-066] | 90% |  | 80% | 90% | 90% | 90% | 90% | 80% | 90% | 80% | 
CCOC(=O)C1C=CC(NC(=O)C2(C(F)(F)F)CC(c3cc(OC)cc(OC)c3)=NO2)C1 (mixture of isomers) [Example I-043] | 90% | 80% | 80% | 80% | 90% | 90% | 80% | 80% | 80% |  | 80%
COC(=O)CS(=O)(=O)NC(=O)C1C=CC(NC(=O)C2(C(F)(F)F)CC(c3cc(F)cc(F)c3)=NO2)C1 (stereo not drawn) [II-39] | 80% |  | 80% | 80% | 80% | 90% | 80% |  |  |  | 
C=CC1(C(=O)N[C@H]2C=C[C@H](C(=O)N3CCCCO3)C2)CC(c2cc(F)cc(F)c2)=NO1 (stereo partly drawn) [II-29] |  |  | 80% | 80% | 90% | 80% | 80% | 90% | 80% | 80% | 
CCOC(=O)C1C=CC(NC(=O)C2(C)CC(c3cccc(C#N)c3)=NO2)C1 (mixture of isomers) [Example I-069] | 90% | 80% | 80% | 90% | 90% | 90% | 80% | 90% | 80% | 80% | 80%
C=CC1(C(=O)NC2C=CC(C(=O)OC(C)C)C2)CC(c2cc(F)cc(F)c2)=NO1 (mixture of isomers) [Example I-034] | 90% | 90% | 90% | 90% | 100% | 90% |  | 80% | 80% | 80% | 80%
C=CC1(C(=O)NC2C=CC(C(=O)N3CCCO3)C2)CC(c2cc(F)cc(F)c2)=NO1 (stereo not drawn) [II-27] | 90% | 90% | 90% | 80% | 90% | 90% | 80% | 90% | 80% | 90% | 
C=CC1(C(=O)NC2C=CC(C(=O)NC(C)(C)C(=O)OC)C2)CC(c2cc(F)cc(F)c2)=NO1 (stereo not drawn) [II-21] |  |  |  |  |  |  |  |  |  | 80% | 
COCCOC(=O)C1C=CC(NC(=O)C2(C)CC(c3cccc(C#N)c3)=NO2)C1 (mixture of isomers) [Example I-081] |  | 90% | 80% | 100% | 100% | 100% | 80% |  | 80% | 90% | 80%
C=CC1(C(=O)NC2C=CC(C(=O)NC(C(=O)OC)C(C)C)C2)CC(c2cc(F)cc(F)c2)=NO1 (mixture of isomers) [II-25] | 80% |  |  | 100% | 90% | 90% | 80% | 80% |  | 80% | 
CC1(C(=O)NC2C=CC(C(=O)OCCCl)C2)CC(c2cccc(C#N)c2)=NO1 (mixture of isomers) [Example I-079] | 90% | 80% | 90% | 100% |  | 90% | 90% | 80% | 90% | 90% | 80%
C=CC1(C(=O)NC2C=CC(C(=O)NC(C)(C)C#N)C2)CC(c2cc(F)cc(F)c2)=NO1 (mixture of isomers) [II-20] |  | 80% |  |  |  | 100% |  |  |  |  | 
Cc1cc(C2=NOC(C(=O)NC3C=CC(C(=O)OCC(F)(F)F)C3)(C(F)(F)F)C2)cc(C(F)(F)F)c1 (mixture of isomers) [Example I-050] | 90% |  |  | 90% |  | 90% | 80% |  |  |  | 80%
C=CC1(C(=O)NC2C=CC(C(=O)OC)C2)CC(c2cc(F)cc(F)c2)=NO1 (mixture of isomers) [Example I-035] | 90% | 90% | 80% | 90% | 90% | 90% | 80% | 90% | 80% | 80% | 80%
COC(=O)C(C)(C)NC(=O)C1C=CC(NC(=O)C2(C)CC(c3cc(F)cc(F)c3)=NO2)C1 (mixture of isomers) [II-09] |  |  |  |  | 80% | 90% |  |  |  | 90% | 
